This is an account of results in patent publication US11497752B2, “Compounds and uses thereof” (Foghorn Therapeutics Inc., priority 2018, dated 2022).

Experiment [1] has as its target BRG-1 (Homo sapiens, UniProt P51532). The experiment is described as follows: ATPase catalytic activity of BRG-1 (ADP-Glo in vitro biochemical assay). The note with it: for BRG1 Max % Inhibition: Table 6.
The target in experiment [2] is BRM (Homo sapiens, UniProt P51531). The experiment is described as follows: ATPase catalytic activity of BRM (ADP-Glo in vitro biochemical assay). The note with it: for BRM Max % Inhibition: Table 6. In general terms: In ADP-Glo the light output rises with the ADP produced.
Chain of BRM (P51531 whole entry): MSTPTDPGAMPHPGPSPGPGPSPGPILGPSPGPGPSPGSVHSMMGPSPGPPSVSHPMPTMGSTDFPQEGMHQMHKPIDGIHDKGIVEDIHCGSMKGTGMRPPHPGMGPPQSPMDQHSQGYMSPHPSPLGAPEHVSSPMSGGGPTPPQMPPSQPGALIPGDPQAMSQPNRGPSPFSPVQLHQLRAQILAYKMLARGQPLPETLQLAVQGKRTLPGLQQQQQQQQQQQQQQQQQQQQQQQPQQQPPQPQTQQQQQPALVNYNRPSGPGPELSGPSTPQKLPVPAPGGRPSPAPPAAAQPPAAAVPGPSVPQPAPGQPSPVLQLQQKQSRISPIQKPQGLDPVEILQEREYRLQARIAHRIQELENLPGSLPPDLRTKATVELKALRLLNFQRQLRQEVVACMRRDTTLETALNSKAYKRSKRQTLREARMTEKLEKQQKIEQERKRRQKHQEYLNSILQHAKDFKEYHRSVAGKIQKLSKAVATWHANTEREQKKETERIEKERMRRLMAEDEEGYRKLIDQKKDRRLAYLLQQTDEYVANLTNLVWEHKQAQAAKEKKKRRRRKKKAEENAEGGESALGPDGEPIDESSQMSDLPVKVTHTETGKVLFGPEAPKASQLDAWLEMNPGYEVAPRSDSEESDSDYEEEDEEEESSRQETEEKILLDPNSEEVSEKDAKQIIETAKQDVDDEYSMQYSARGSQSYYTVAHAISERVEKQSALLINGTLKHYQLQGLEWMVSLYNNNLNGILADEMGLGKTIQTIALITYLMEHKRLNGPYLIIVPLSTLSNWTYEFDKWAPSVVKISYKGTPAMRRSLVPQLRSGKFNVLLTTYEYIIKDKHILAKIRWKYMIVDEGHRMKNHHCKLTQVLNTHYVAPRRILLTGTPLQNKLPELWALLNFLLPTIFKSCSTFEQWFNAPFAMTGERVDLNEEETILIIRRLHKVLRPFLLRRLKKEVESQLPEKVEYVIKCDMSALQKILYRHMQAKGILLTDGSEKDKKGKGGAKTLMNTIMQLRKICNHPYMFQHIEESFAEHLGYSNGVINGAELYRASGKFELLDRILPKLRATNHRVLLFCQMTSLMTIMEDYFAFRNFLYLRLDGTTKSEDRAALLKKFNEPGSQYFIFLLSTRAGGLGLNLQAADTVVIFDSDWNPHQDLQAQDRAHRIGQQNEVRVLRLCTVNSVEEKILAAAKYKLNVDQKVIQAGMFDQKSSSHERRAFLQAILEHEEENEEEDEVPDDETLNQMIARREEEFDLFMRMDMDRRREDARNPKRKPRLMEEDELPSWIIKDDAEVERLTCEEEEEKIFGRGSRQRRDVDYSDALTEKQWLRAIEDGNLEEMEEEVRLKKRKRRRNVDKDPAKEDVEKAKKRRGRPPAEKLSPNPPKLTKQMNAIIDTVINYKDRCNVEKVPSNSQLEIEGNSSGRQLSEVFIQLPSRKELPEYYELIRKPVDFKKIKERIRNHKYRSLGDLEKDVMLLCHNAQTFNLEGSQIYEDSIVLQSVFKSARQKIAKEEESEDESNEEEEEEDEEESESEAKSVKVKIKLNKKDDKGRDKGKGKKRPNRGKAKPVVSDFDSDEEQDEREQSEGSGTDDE

Where only a bound is given, the exact number is not on record here.

Chain of BRG-1 (P51532 whole entry): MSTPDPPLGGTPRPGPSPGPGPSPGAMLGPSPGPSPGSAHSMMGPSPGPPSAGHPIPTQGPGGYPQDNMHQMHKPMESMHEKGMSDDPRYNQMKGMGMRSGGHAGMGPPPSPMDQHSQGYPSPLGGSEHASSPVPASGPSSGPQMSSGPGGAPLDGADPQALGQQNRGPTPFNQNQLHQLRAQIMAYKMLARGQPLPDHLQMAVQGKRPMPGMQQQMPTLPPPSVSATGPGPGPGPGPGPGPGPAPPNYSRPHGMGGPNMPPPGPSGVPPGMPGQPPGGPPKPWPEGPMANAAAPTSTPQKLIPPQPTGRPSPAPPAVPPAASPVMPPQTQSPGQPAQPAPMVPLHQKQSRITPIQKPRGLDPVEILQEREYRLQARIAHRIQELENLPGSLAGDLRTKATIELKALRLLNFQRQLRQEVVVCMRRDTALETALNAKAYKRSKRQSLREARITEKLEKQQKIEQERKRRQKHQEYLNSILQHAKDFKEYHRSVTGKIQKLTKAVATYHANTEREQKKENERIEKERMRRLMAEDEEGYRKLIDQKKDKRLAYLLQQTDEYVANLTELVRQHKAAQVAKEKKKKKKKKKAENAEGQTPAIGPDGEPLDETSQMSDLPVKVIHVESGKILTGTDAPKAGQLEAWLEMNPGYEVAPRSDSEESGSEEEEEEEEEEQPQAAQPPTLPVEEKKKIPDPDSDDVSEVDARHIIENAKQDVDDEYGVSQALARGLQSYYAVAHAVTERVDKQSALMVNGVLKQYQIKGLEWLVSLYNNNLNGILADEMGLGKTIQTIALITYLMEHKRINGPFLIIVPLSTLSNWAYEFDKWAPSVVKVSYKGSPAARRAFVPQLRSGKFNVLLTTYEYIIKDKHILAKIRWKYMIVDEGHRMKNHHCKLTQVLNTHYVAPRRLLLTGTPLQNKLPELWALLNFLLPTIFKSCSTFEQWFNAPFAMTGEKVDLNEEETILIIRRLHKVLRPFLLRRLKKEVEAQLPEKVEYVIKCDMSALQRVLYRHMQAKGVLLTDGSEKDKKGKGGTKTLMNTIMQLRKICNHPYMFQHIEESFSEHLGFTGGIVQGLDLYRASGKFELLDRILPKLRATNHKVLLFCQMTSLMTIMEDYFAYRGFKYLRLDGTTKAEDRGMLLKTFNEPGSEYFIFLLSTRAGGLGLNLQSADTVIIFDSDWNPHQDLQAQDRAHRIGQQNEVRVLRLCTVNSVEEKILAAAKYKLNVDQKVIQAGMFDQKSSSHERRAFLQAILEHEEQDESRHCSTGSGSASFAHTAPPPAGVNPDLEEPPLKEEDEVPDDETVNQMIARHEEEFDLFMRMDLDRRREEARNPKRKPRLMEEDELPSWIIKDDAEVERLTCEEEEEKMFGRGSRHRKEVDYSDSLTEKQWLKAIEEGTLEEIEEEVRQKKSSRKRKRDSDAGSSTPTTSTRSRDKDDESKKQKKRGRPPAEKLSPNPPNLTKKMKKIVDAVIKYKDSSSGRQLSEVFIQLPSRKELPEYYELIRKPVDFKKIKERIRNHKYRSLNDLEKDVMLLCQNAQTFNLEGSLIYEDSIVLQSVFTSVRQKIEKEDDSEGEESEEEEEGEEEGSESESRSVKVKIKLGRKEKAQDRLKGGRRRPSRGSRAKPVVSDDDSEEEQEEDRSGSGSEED

In the case of `CN(C)C(=O)CN(C)c1cc(-c2cccc(-c3csc(NC(=O)CNC(=O)c4ccc(N)cc4)n3)c2)ccn1` [Compound 206, 4-amino-N-[2-[[4-[3-[2-[[2-(dimethylamino)-2-oxo-ethyl]-methyl-amino]-4-pyridyl]phenyl]thiazol-2-yl]amino]-2-oxo-ethyl]benzamide], in experiment [1], the IC50 was in the range of 100 to 1000 nM and the “BRG1 Max % Inhibition” value is reported as greater than 95%. In experiment [2], the half-maximal inhibitory concentration (IC50) lay within 100 to 1000 nM and the “BRM Max % Inhibition” value is greater than 95%.

For `CC(C)c1cc(-c2cccc(-c3csc(NC(=O)CNC(=O)c4ccc(N)cc4)n3)c2)ccn1` [Compound 207, 4-amino-N-[2-[[4-[3-(2-isopropyl-4-pyridyl)phenyl]thiazol-2-yl]amino]-2-oxo-ethyl]benzamide], in experiment [1], the IC50 is less than 100 nM and the “BRG1 Max % Inhibition” value was greater than 95%. In experiment [2], the IC50 is less than 100 nM and the “BRM Max % Inhibition” value is on record as greater than 95%.

With `Nc1ccc(C(=O)NCC(=O)Nc2nc(-c3cncc(-c4ccncc4)c3)cs2)cc1` [Compound 208, 4-amino-N-[2-oxo-2-[[4-[5-(4-pyridyl)-3-pyridyl]thiazol-2-yl]amino]ethyl]benzamide], in experiment [1], the half-inhibitory concentration (IC50) fell in the range of 100 to 1000 nM and the “BRG1 Max % Inhibition” value was greater than 80%. Further, in experiment [2], the IC50 was 100 to 1000 nM and the “BRM Max % Inhibition” value is greater than 90%.

For the compound `COC(=O)C(C)(C)n1ccc(-c2cccc(-c3csc(NC(=O)CNC(=O)c4ccc(N)cc4)n3)c2)n1` [Compound 209, methyl 2-[3-[3-[2-[[2-[(4-aminobenzoyl)amino]acetyl]amino]thiazol-4-yl]phenyl]pyrazol-1-yl]-2-methyl-propanoate], in experiment [1], the half-inhibitory concentration (IC50) is less than 100 nM and the “BRG1 Max % Inhibition” value is on record as greater than 95%. In experiment [2], the half-maximal inhibitory concentration (IC50) was less than 100 nM and the “BRM Max % Inhibition” value was greater than 95%.

With `Nc1ccc(C(=O)NCC(=O)Nc2nc(-c3cccc(-c4ccn(CC(=O)O)n4)c3)cs2)cc1` [Compound 210, 2-[3-[3-[2-[[2-[(4-aminobenzoyl)amino]acetyl]amino]thiazol-4-yl]phenyl]pyrazol-1-yl]acetic acid], in experiment [1], the IC50 was 100 to 1000 nM and the “BRG1 Max % Inhibition” value is greater than 80%. Also, in experiment [2], the half-maximal inhibitory concentration (IC50) was in the range of 100 to 1000 nM and the “BRM Max % Inhibition” value is greater than 95%.

In the case of `CC(C)(N)c1cc(-c2cccc(-c3csc(NC(=O)CNC(=O)c4ccc(N)cc4)n3)c2)ccn1` [Compound 211, 4-amino-N-[2-[[4-[3-[2-(1-amino-1-methyl-ethyl)-4-pyridyl]phenyl]thiazol-2-yl]amino]-2-oxo-ethyl]benzamide], in experiment [1], the IC50 was 100 to 1000 nM and the “BRG1 Max % Inhibition” value is listed as greater than 90%. In experiment [2], the 50% inhibitory concentration (IC50) was in the range of 100 to 1000 nM and the “BRM Max % Inhibition” value was greater than 95%.

As to `CC(C)(C(=O)O)n1ccc(-c2cccc(-c3csc(NC(=O)CNC(=O)c4ccc(N)cc4)n3)c2)n1` [Compound 212, 2-[3-[3-[2-[[2-[(4-aminobenzoyl)amino]acetyl]amino]thiazol-4-yl]phenyl]pyrazol-1-yl]-2-methyl-propanoic acid], in experiment [1], the IC50 fell in the range of 100 to 1000 nM and the “BRG1 Max % Inhibition” value is listed as greater than 95%. In experiment [2], the IC50 was in the range of 100 to 1000 nM and the “BRM Max % Inhibition” value is greater than 95%.

Consider `CNC(=O)C(C)(C)n1ccc(-c2cccc(-c3csc(NC(=O)CNC(=O)c4ccc(N)cc4)n3)c2)n1` [Compound 213, 4-amino-N-[2-[[4-[3-[1-[1,1-dimethyl-2-(methylamino)-2-oxo-ethyl]pyrazol-3-yl]phenyl]thiazol-2-yl]amino]-2-oxo-ethyl]benzamide], for which, in experiment [1], the IC50 is less than 100 nM and the “BRG1 Max % Inhibition” value is greater than 95%. Further, in experiment [2], the IC50 was less than 100 nM and the “BRM Max % Inhibition” value is listed as greater than 95%.

As for `CSCC[C@H](NC(=O)c1ccc(N)cc1)C(=O)Nc1nc(-c2cccc(-c3ccnc(C)c3)c2)cs1` [Compound 214, (S)-4-amino-N-(1-((4-(3-(2-methylpyridin-4-yl)phenyl)thiazol-2-yl)amino)-4-(methylthio)-1-oxobutan-2-yl)benzamide], in experiment [1], the concentration for half-maximal inhibition (IC50) is less than 100 nM and the “BRG1 Max % Inhibition” value is listed as greater than 95%. For the same compound, in experiment [2], the IC50 is less than 100 nM and the “BRM Max % Inhibition” value was greater than 95%.

Take `Cc1nnc(C(=O)NC(C)(C)c2cc(-c3cccc(-c4csc(NC(=O)CNC(=O)c5ccc(N)cc5)n4)c3)ccn2)o1` [Compound 215, N-[1-[4-[3-[2-[[2-[(4-aminobenzoyl)amino]acetyl]amino]thiazol-4-yl]phenyl]-2-pyridyl]-1-methyl-ethyl]-5-methyl-1,3,4-oxadiazole-2-carboxamide]: in experiment [1], the IC50 lay within 100 to 1000 nM and the “BRG1 Max % Inhibition” value was greater than 90%. In addition, in experiment [2], the IC50 fell in the range of 100 to 1000 nM and the “BRM Max % Inhibition” value is greater than 90%.

For the compound `CNC(=O)Cn1ccc(-c2cccc(-c3csc(NC(=O)CNC(=O)c4ccc(N)cc4)n3)c2)n1` [Compound 216, 4-amino-N-[2-[[4-[3-[1-[2-(methylamino)-2-oxo-ethyl]pyrazol-3-yl]phenyl]thiazol-2-yl]amino]-2-oxo-ethyl]benzamide], in experiment [1], the half-inhibitory concentration (IC50) lay within 100 to 1000 nM and the “BRG1 Max % Inhibition” value was greater than 95%. For the same compound, in experiment [2], the concentration for half-maximal inhibition (IC50) is less than 100 nM and the “BRM Max % Inhibition” value is given as greater than 90%.

Regarding `Nc1ccc(C(=O)NCC(=O)Nc2nc(-c3ccnc(-c4ccncc4)c3)cs2)cc1` [Compound 217, 4-amino-N-[2-oxo-2-[[4-[2-(4-pyridyl)-4-pyridyl]thiazol-2-yl]amino]ethyl]benzamide], in experiment [1], the 50% inhibitory concentration (IC50) was less than 100 nM and the “BRG1 Max % Inhibition” value is reported as greater than 90%. In experiment [2], the IC50 was less than 100 nM and the “BRM Max % Inhibition” value is greater than 90%.

As to `Nc1ccc(C(=O)NCC(=O)Nc2nc(-c3cccc(CCc4ccncc4)c3)cs2)cc1` [Compound 218, 4-amino-N-[2-oxo-2-[[4-[3-[2-(4-pyridyl)ethyl]phenyl]thiazol-2-yl]amino]ethyl]benzamide], in experiment [1], the IC50 was 100 to 1000 nM and the “BRG1 Max % Inhibition” value is greater than 90%. In addition, in experiment [2], the IC50 is less than 100 nM and the “BRM Max % Inhibition” value was greater than 95%.

On to `Nc1ccc(C(=O)NCC(=O)Nc2nc(-c3cccc(-c4ccnc(C5(C(=O)O)CC5)c4)c3)cs2)cc1` [Compound 219, 1-[4-[3-[2-[[2-[(4-aminobenzoyl)amino]acetyl]amino]thiazol-4-yl]phenyl]-2-pyridyl]cyclopropanecarboxylic acid], for which, in experiment [1], the IC50 was less than 100 nM and the “BRG1 Max % Inhibition” value is greater than 95%. Besides, in experiment [2], the IC50 is less than 100 nM and the “BRM Max % Inhibition” value is on record as greater than 95%.

`Cn1cnc(-c2cccc(-c3csc(NC(=O)CNC(=O)c4ccc(N)cc4)n3)c2)c1` [Compound 220, 4-amino-N-[2-[[4-[3-(1-methylimidazol-4-yl)phenyl]thiazol-2-yl]amino]-2-oxo-ethyl]benzamide]: in experiment [1], the IC50 fell in the range of 1000 to 10000 nM and the “BRG1 Max % Inhibition” value was greater than 80%. Further, in experiment [2], the 50% inhibitory concentration (IC50) lay in the range of 100 to 1000 nM and the “BRM Max % Inhibition” value is given as greater than 95%.

With `Nc1ccc(C(=O)NCC(=O)Nc2nc(-c3cccc(-c4ccnc(N5CCCC(N)C5)c4)c3)cs2)cc1` (stereo not shown) [Compound 221, 4-amino-N-[2-[[4-[3-[2-(3-amino-1-piperidyl)-4-pyridyl]phenyl]thiazol-2-yl]amino]-2-oxo-ethyl]benzamide], in experiment [1], the half-inhibitory concentration (IC50) fell in the range of 100 to 1000 nM and the “BRG1 Max % Inhibition” value is listed as greater than 80%. Besides, in experiment [2], the IC50 lay within 100 to 1000 nM and the “BRM Max % Inhibition” value is reported as greater than 95%.

With `Cc1nc(-c2cccc(-c3csc(NC(=O)CNC(=O)c4ccc(N)cc4)n3)c2)cn1C` [Compound 222, 4-amino-N-[2-[[4-[3-(1,2-dimethylimidazol-4-yl)phenyl]thiazol-2-yl]amino]-2-oxo-ethyl]benzamide], in experiment [1], the half-inhibitory concentration (IC50) fell in the range of 100 to 1000 nM and the “BRG1 Max % Inhibition” value was greater than 80%. Further, in experiment [2], the IC50 is 100 to 1000 nM and the “BRM Max % Inhibition” value is given as greater than 95%.

With `CNC(=O)C1(c2cc(-c3cccc(-c4csc(NC(=O)CNC(=O)c5ccc(N)cc5)n4)c3)ccn2)CC1` [Compound 223, 4-amino-N-[2-[[4-[3-[2-[1-(methylcarbamoyl)cyclopropyl]-4-pyridyl]phenyl]thiazol-2-yl]amino]-2-oxo-ethyl]benzamide], in experiment [1], the IC50 was less than 100 nM and the “BRG1 Max % Inhibition” value was greater than 90%. Besides, in experiment [2], the half-inhibitory concentration (IC50) was less than 100 nM and the “BRM Max % Inhibition” value is on record as greater than 95%.

For `Nc1ccc(C(=O)NCC(=O)Nc2nc(-c3cccc(-c4ccnc(CC(=O)O)c4)c3)cs2)cc1` [Compound 224, [2-[4-[3-[2-[[2-[(4-aminobenzoyl)amino]acetyl]amino]thiazol-4-yl]phenyl]-2-pyridyl]acetyl]oxysodium], in experiment [1], the IC50 is less than 100 nM and the “BRG1 Max % Inhibition” value was greater than 90%. For the same compound, in experiment [2], the IC50 is less than 100 nM and the “BRM Max % Inhibition” value is reported as greater than 95%.

Regarding `CN(C)C1CCCN(c2cc(-c3cccc(-c4csc(NC(=O)CNC(=O)c5ccc(N)cc5)n4)c3)ccn2)C1` (stereo not shown) [Compound 225, 4-amino-N-[2-[[4-[3-[2-[3-(dimethylamino)-1-piperidyl]-4-pyridyl]phenyl]thiazol-2-yl]amino]-2-oxo-ethyl]benzamide], in experiment [1], the half-inhibitory concentration (IC50) lay in the range of 100 to 1000 nM and the “BRG1 Max % Inhibition” value is recorded as greater than 90%. Also, in experiment [2], the 50% inhibitory concentration (IC50) was in the range of 100 to 1000 nM and the “BRM Max % Inhibition” value is greater than 80%.

For `CNC(=O)C(C)(C)c1cc(-c2cccc(-c3csc(NC(=O)CNC(=O)c4ccc(N)cc4)n3)c2)ccn1` [Compound 226, 4-amino-N-[2-[[4-[3-[2-[1,1-dimethyl-2-(methylamino)-2-oxo-ethyl]-4-pyridyl]phenyl]thiazol-2-yl]amino]-2-oxo-ethyl]benzamide], in experiment [1], the IC50 is less than 100 nM and the “BRG1 Max % Inhibition” value is on record as greater than 95%. In experiment [2], the IC50 was less than 100 nM and the “BRM Max % Inhibition” value is reported as greater than 95%.

In the case of `Nc1ccc(C(=O)NCC(=O)Nc2nc(-c3cccc(-c4ccncn4)c3)cs2)cc1` [Compound 227, 4-amino-N-[2-oxo-2-[[4-(3-pyrimidin-4-ylphenyl)thiazol-2-yl]amino]ethyl]benzamide], in experiment [1], the IC50 was less than 100 nM and the “BRG1 Max % Inhibition” value is reported as greater than 95%. For the same compound, in experiment [2], the 50% inhibitory concentration (IC50) is less than 100 nM and the “BRM Max % Inhibition” value is given as greater than 95%.

As usually defined, the IC50 is the concentration at which inhibition is half-maximal.
